{
  "source": "patent US20200037609A1",
  "about": "“HERBICIDAL COMPOSITIONS AND METHODS OF USE THEREOF” (The Regents of the University of California, priority 2017, published 2020)",
  "key": {"[1]": {"tested_on": "soil-grown Arabidopsis thaliana Col-0 ecotype plants", "assay": "Herbicidal spray experiments with 1 mM aspterric acid in solvent formulations", "assay_type": "in vivo", "experimental": "Aspterric acid was dissolved in the following solvent formulations at a final concentration of 1 mM: (1) 0.5% silwet L-77 and 1% DMSO (floral dip formulation), (2) 2% EtOH, 1% corn oil, and 0.1% tween 80, and (3) 2% EtOH and 0.05% Finale (Finale formulation, contains a final concentration of […]).\nFor spray treatments with aspterric acid in the various formulations described above, Arabidopsis thaliana Col-0 ecotype plants were grown in soil under long day conditions (16 hours of light followed by 8 hours of dark per day) at 23° C. using cool-white fluorescence bulbs as the light source. Ten-day old seedlings were sprayed with 1 mM aspterric acid dissolved in formulation (1), (2), or (3) as described above. Spray application with the various respective formulations was repeated every 2 days."}, "Saccharomyces cerevisiae": {"tested_on": "Saccharomyces cerevisiae", "assay": "Yeast growth inhibition assay on plates", "assay_type": "cell-based", "conditions": "250 μM aspterric acid", "experimental": "Saccharomyces cerevisiae was plated onto dropout media that lacked isoleucine, leucine, and valine, either with or without 250 μM aspterric acid. Saccharomyces cerevisiae was also plated onto rich media that contained all amino acids along with 250 μM aspterric acid. Plates were incubated at 30° C."}, "[2]": {"tested_on": "pollen development in Arabidopsis thaliana", "assay": "Pollen development in AA treated plants", "assay_type": "in vivo", "conditions": "treated before flowering; listed as AA"}, "Arabidopsis thaliana": {"tested_on": "Arabidopsis thaliana", "assay": "Agar-based plant growth inhibition assay on MS media", "assay_type": "in vivo", "conditions": "for growth of A. thaliana on MS media: 50 μM aspterric acid", "experimental": "Agar-based growth inhibition assays were carried out on MS media (4.33 g Murashige and Skoog basal medium, 20 g sucrose, and 10 g Agar per liter MS media, pH was adjusted to 5.7 using KOH). Aspterric acid at a final concentration of 50 μM was included in the experimental media. DMSO at final concentration of 1% was used to increase the solubility of aspterric acid. The control MS media contained the same amount of DMSO, but no aspterric acid. Sterilized Arabidopsis thaliana seeds were plated on MS media. After 2 days of cold treatment at 4° C. in the dark, plates were transferred to standard growing condition (16 hour light and 8 hour dark at 22° C.) to geminate. After germination on day 4, the seedlings were transferred to MS media containing 50 μM aspterric acid. MS media containing only DMSO was used as a control. Images were taken at day 8 and day 12 to assay growth inhibition activity of aspterric acid on Arabidopsis thaliana.\n(§1) Growth inhibition assay of plants on plates or in the tubes. MS (2.16 g/L Murashige and Skoog basal medium, 8 g/L sucrose, 8 g/L agar) media was used to test the growth inhibition of AA on A. thaliana, Solanum lycopersicum, and Zea mays. A. thaliana, S. lycopersicum, G. max and Z. mays were grown under long day condition (16/8 h light/dark) using cool-white fluorescence bulbs as the light resource at 23° C. AA was dissolved in ethanol and added to the media before inoculating strains or growing plants. The media of control treatment contains the same amount of ethanol, but without AA."}, "[3]": {"tested_on": "tomato seedlings (Solanum lycopersicum)", "assay": "Agar-based plant growth inhibition assay on MS media", "assay_type": "in vivo", "conditions": "50 μM aspterric acid", "experimental": "Sterile tomato seedlings were plated on MS media containing 50 μM aspterric acid and 1% DMSO (to increase the solubility of aspterric acid) or on MS media containing 50 μM glyphosate on day 0. MS media containing only 1% DMSO was used as a control. Growth was assessed on day 3 and day 7.\nas §1"}, "[4]": {"tested_on": "S. cerevisiae ΔILV3 expressing fDHAD", "assay": "Growth inhibition of S. cerevisiae ΔILV3 in ILV dropout media", "assay_type": "cell-based, Saccharomyces cerevisiae", "experimental": "Growth inhibition assay of S. cerevisiae on plates or in the tubes. S. cerevisiae was grown in isoleucine, leucine and valine (ILV) dropout media (20 g/L glucose, 0.67 g/L Difco™ Yeast Nitrogen Base w/o amino acids, 18 mg/L adenine, arginine 76 mg/L, asparagine 76 mg/L, aspartic acid 76 mg/L, glutamic acid 76 mg/L, histidine 76 mg/L, lysine 76 mg/L, methionine 76 mg/L, phenylalanine 76 mg/L, serine 76 mg/L, threonine 76 mg/L, tryptophan 76 mg/L, tyrosine 76 mg/L) to test growth inhibition of AA on S. cerevisiae. S. cerevisiae was incubated at 28° C. until OD600 of the control strain without AA treatment reached about 0.8. The ratio of yeast OD600 in media with AA treatment to yeast OD600 in media without AA was calculated as the percentage of growth inhibition. The inhibition curve was plotted as percentage of inhibition versus AA concentrations. […] The growth curves of TY05, TY06 and TY07 were also plotted (FIG. 29A-29D). The OD600 was recorded for every 20 minutes over a total of 50 h. The inhibition percentage can be calculated by following equation: […]"}, "Zea mays": {"tested_on": "Zea mays", "assay": "Plant growth inhibition assay on MS media", "assay_type": "in vivo", "conditions": "50 μM AA", "experimental": "as §1"}, "Streptomyces sp. Mg1": {"tested_on": "Streptomyces sp. Mg1", "assay": "Streptomyces growth inhibition assay", "assay_type": "cell-based", "conditions": "250 μM aspterric acid", "experimental": "Streptomyces sp. Mg1 was plated onto MS media either with or without 250 μM aspterric acid. Plates were incubated at 28° C."}, "green bean seedlings": {"tested_on": "green bean seedlings", "assay": "Agar-based plant growth inhibition assay on MS media", "assay_type": "in vivo", "conditions": "50 μM aspterric acid, day 3 and day 7", "experimental": "Sterile green bean seedlings were plated on MS media containing 50 μM aspterric acid and 1% DMSO (to increase the solubility of aspterric acid) on day 0. MS media containing only 1% DMSO was used as a control. Growth was assessed on day 3 and day 7."}},
  "note": "“Also recorded” adds a separate entry of the source.",
  "data": [
    {"smiles": "CC(C)=C1CC[C@]23CO[C@H](C2)[C@@](O)(C(=O)O)CC[C@@H]13", "note": "[aspterric acid]", "values": [
      {"measurement": "growth after spray, formulation (1)", "setting": "[1]; 1 mM in 0.5% silwet L-77 and 1% DMSO, every 2 days, 18 days after first spray", "value": "showed growth inhibition"},
      {"measurement": "growth after spray, formulation (3)", "setting": "[1]; 1 mM in 2% EtOH and 0.05% Finale, glufosinate-resistant plants, 18 days after first spray", "value": "significant growth inhibition"},
      {"measurement": "growth after spray, formulation (2)", "setting": "[1]; 1 mM in 2% EtOH, 1% corn oil, 0.1% tween 80, every 2 days, 17 days after first spray", "value": "showed growth inhibition"},
      {"measurement": "growth of S. cerevisiae on media lacking isoleucine, leucine and valine", "setting": "Saccharomyces cerevisiae", "value": "inhibited the growth"},
      {"measurement": "growth of S. cerevisiae on rich media", "setting": "Saccharomyces cerevisiae; all amino acids present", "value": "grew normally"},
      {"measurement": "pollen formation in AA treated A. thaliana", "setting": "[2]", "value": "failed to form normal pollen; also recorded: depleted of healthy and mature pollen"},
      {"measurement": "growth of A. thaliana on MS media", "setting": "Arabidopsis thaliana", "value": "significant vegetative growth inhibition"},
      {"measurement": "growth of A. thaliana on MS media", "setting": "Arabidopsis thaliana; listed as AA", "value": "potently inhibit"},
      {"measurement": "growth of wild-type A. thaliana on media", "setting": "Arabidopsis thaliana; 100 μM AA", "value": "strongly inhibited"},
      {"measurement": "growth of tomato (Solanum lycopersicum) on MS media", "setting": "[3]", "value": "significant vegetative growth inhibition"},
      {"measurement": "growth of tomato (Solanum lycopersicum) on MS media", "setting": "[3]; listed as AA", "value": "effective inhibitor of root development and plant growth"},
      {"measurement": "IC50", "setting": "[4]; Saccharomyces cerevisiae, ILV dropout media, read-out: IC50 of growth inhibition, yeast expressing fDHAD", "value": "~2", "unit": "µM"},
      {"measurement": "sensitivity to AA of yeast expressing fDHAD compared to yeast expressing AstD", "setting": "[4]; ratio of IC50", "value": "approximately 100 times"},
      {"measurement": "root development and plant growth of Zea mays on MS media", "setting": "Zea mays", "value": "effective inhibitor of root development and plant growth"},
      {"measurement": "growth of Streptomyces on MS media", "setting": "Streptomyces sp. Mg1", "value": "inhibited the growth"},
      {"measurement": "growth of green bean seedlings on MS media", "setting": "green bean seedlings", "value": "significant vegetative growth inhibition"}
    ]}
  ]
}
